Consider four molecules from PMC7987348, “Structural basis for human TRPC5 channel inhibition by two distinct inhibitors” (eLife, 2021).

Series [1] has as its system TRPC5. The arrangement: method as in Minard et al., 2019. The settings on record: ref Minard et al., 2019; read-out: EC50 as TRPC5 activator; cited from earlier work.
For series [2], the system named is TRPC5. The arrangement: method as in Richter et al., 2014; Zhou et al., 2017; Zhu et al., 2015. The settings on record: ref Richter et al., 2014; Zhou et al., 2017; Zhu et al., 2015; read-out: IC50 for inhibition of TRPC5; cited from earlier work.
Series [3] deals with the molecule itself. Briefly: cryo-EM structure; purified hTRPC5(1-764) in GDN micelles with 100 uM Ca2+ plus 500 uM CMZ, 50 uM HC-070 or EA (EA not seen, 'apo'); graphene oxide grids; C4 symmetry imposed in refinement.
Series [4] concerns the molecule itself. Briefly: SEC; fluorescence-detection SEC (FSEC) of transfected HEK293F cells solubilised in 1% LMNG, 0.1% CHS in TBS (20 mM Tris-HCl pH 8.0, 150 mM NaCl), 4°C; Superose-6 Increase.

By EC50 is commonly meant the concentration that produces a half-maximal response. As to `Cn1c(=O)n(CCCO)c(=O)c2c1nc(Oc1ccc(Cl)c(OC(F)(F)F)c1)n2Cc1ccc(Cl)cc1` [AM237], the EC50 with TRPC5 [1] is 0.015 to 0.02 µM.
As usually defined, the IC50 is the concentration at which inhibition is half-maximal. Regarding `c1ccc(Cn2c(NCc3ccco3)nc3ccccc32)cc1` [AC1903], the IC50 in the series on TRPC5 [2] is 14.7 µM.

B1: human TRPC5 residues 1-764 (hTRPC5_(1-764)), purified tetrameric channel (domain or fragment, UniProt Q9UL62 1-764, looked up)
chain: MAQLYYKKVNYSPYRDRIPLQIVRAETELSAEEKAFLNAVEKGDYATVKQALQEAEIYYNVNINCMDPLGRSALLIAIENENLEIMELLLNHSVYVGDALLYAIRKEVVGAVELLLSYRRPSGEKQVPTLMMDTQFSEFTPDITPIMLAAHTNNYEIIKLLVQKRVTIPRPHQIRCNCVECVSSSEVDSLRHSRSRLNIYKALASPSLIALSSEDPILTAFRLGWELKELSKVENEFKAEYEELSQQCKLFAKDLLDQARSSRELEIILNHRDDHSEELDPQKYHDLAKLKVAIKYHQKEFVAQPNCQQLLATLWYDGFPGWRRKHWVVKLLTCMTIGFLFPMLSIAYLISPRSNLGLFIKKPFIKFICHTASYLTFLFMLLLASQHIVRTDLHVQGPPPTVVEWMILPWVLGFIWGEIKEMWDGGFTEYIHDWWNLMDFAMNSLYLATISLKIVAYVKYNGSRPREEWEMWHPTLIAEALFAISNILSSLRLISLFTANSHLGPLQISLGRMLLDILKFLFIYCLVLLAFANGLNQLYFYYETRAIDEPNNCKGIRCEKQNNAFSTLFETLQSLFWSVFGLLNLYVTNVKARHEFTEFVGATMFGTYNVISLVVLLNMLIAMMNNSYQLIADHADIEWKFARTKLWMSYFDEGGTLPPPFNIIPSPKSFLYLGNWFNNTFCPKRDPDGRRRRRNLRSFTERNADSLIQNQHYQEVIRNLVKRYVAAMIRNSKTHEGLTEENFKELKQDISSFRYEVLDLLGNR
notes: human TRPC5 (transient receptor potential canonical 5), C-terminally truncated construct, residues 1-764; That this removes the GFP-MBP tag is surmised; also called apo hTRPC5; source: HEK293F, BacMam baculovirus infection, purified (MBP resin, H3C protease digestion, Superose-6 Increase SEC in GDN); not shown: GFP, N-terminal, cleaved; MBP, N-terminal, cleaved
What is called stoichiometry N is the number of molecules, sites or subunits per partner or assembly. Take B1: the “stoichiometry N” value in series [3] stood at 4.

B2: GFP-MBP-tagged human TRPC5 residues 1-764 (hTRPC5_(1-764)) as screened by FSEC (domain or fragment, UniProt Q9UL62 1-764, looked up)
chain: MAQLYYKKVNYSPYRDRIPLQIVRAETELSAEEKAFLNAVEKGDYATVKQALQEAEIYYNVNINCMDPLGRSALLIAIENENLEIMELLLNHSVYVGDALLYAIRKEVVGAVELLLSYRRPSGEKQVPTLMMDTQFSEFTPDITPIMLAAHTNNYEIIKLLVQKRVTIPRPHQIRCNCVECVSSSEVDSLRHSRSRLNIYKALASPSLIALSSEDPILTAFRLGWELKELSKVENEFKAEYEELSQQCKLFAKDLLDQARSSRELEIILNHRDDHSEELDPQKYHDLAKLKVAIKYHQKEFVAQPNCQQLLATLWYDGFPGWRRKHWVVKLLTCMTIGFLFPMLSIAYLISPRSNLGLFIKKPFIKFICHTASYLTFLFMLLLASQHIVRTDLHVQGPPPTVVEWMILPWVLGFIWGEIKEMWDGGFTEYIHDWWNLMDFAMNSLYLATISLKIVAYVKYNGSRPREEWEMWHPTLIAEALFAISNILSSLRLISLFTANSHLGPLQISLGRMLLDILKFLFIYCLVLLAFANGLNQLYFYYETRAIDEPNNCKGIRCEKQNNAFSTLFETLQSLFWSVFGLLNLYVTNVKARHEFTEFVGATMFGTYNVISLVVLLNMLIAMMNNSYQLIADHADIEWKFARTKLWMSYFDEGGTLPPPFNIIPSPKSFLYLGNWFNNTFCPKRDPDGRRRRRNLRSFTERNADSLIQNQHYQEVIRNLVKRYVAAMIRNSKTHEGLTEENFKELKQDISSFRYEVLDLLGNR
notes: human TRPC5 (transient receptor potential canonical 5), C-terminally truncated construct, residues 1-764; Same construct as m1, but uncleaved and unpurified; It is detected by the fluorescence of its GFP tag in FSEC; source: HEK293F, transfected (PEI), solubilised in LMNG/CHS, in supernatant; not shown: GFP, N-terminal, kept; MBP, N-terminal, kept
As for B2, the “stoichiometry N” value in series [4] turned out to be 4.
